Measured values published in patent EP4725957A1, “GROUP OF CYCLIC ALKALINE LIPOPEPTIDE COMPOUNDS, AND PREPARATION METHOD THEREFOR AND USE THEREOF” (Institute of Medicinal Biotechnology, Chinese Academy of …, priority 2023, dated 2024).
≈ marks a conversion by molar mass, not a printed value. Bridge positions count the residues as written; N and C are the ends. Square brackets hold non-standard residues; d marks the D form. Peptide text beside a SMILES is read from it. * marks the point of attachment. Heptanoyl(6-Me) = CC(C)CCCCC(=O)*; dDap = NC[C@@H](N)C(=O)O; Dab = NCC[C@H](N)C(=O)O

Columns and labels:
[1] = tested on: Escherichia coli ATCC BAA-2340 (KPC); type: cell-based; conditions: Escherichia coli ATCC BAA-2340 (KPC)
How it was run: (§1)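 Broth microdilution MIC per CLSI in MH broth, compounds 2-fold diluted to final 64–0.03 mg/L. Inoculum (2-4) × 10^5 CFU/mL final, from 0.5 McFarland suspensions of 18-24 h colonies. Plates sealed and incubated 35-37°C for 16-20 h.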

[2] = tested on: Acinetobacter baumannii NCTC 13304 (OXA-27); type: cell-based; conditions: Acinetobacter baumannii NCTC 13304 (OXA-27)
How it was run: as §1

[3] = tested on: Klebsiella pneumoniae KPN+19-15; type: cell-based; conditions: Klebsiella pneumoniae KPN 19-15
How it was run: as §1

[4] = tested on: Pseudomonas aeruginosa ATCC 27853; type: cell-based; conditions: Pseudomonas aeruginosa ATCC27853
How it was run: as §1

[5] = tested on: Pseudomonas aeruginosa PAE19-3; type: cell-based; conditions: Pseudomonas aeruginosa PAE19-3
How it was run: as §1

[6] = tested on: Escherichia coli ATCC BAA-2523; type: cell-based; conditions: Escherichia coli ATCC BAA-2523
How it was run: as §1

[7] = tested on: Klebsiella pneumoniae ATCC BAA-1705 (KPC); type: cell-based; conditions: Klebsiella pneumoniae ATCC BAA-1705 (KPC)
How it was run: as §1

[8] = tested on: Acinetobacter baumannii ABA19-1; type: cell-based; conditions: Acinetobacter baumannii ABA19-1
How it was run: as §1

[9] = Nephrotoxicity assay: in vitro cytotoxicity of HK-2 cells by CCK-8 assay; type: cell-based; conditions: human, HK-2 cells (human renal), 72 h incubation with drug-containing medium
How it was run: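 HK-2 human renal cells in RPMI-1640 with 10% FBS were exposed to compounds at final 12.5–500 µg/mL for 72 h, then CCK-8 for 3 h and OD450 read. Viability was normalised to drug-free wells; IC50 came from logarithmic regression over three repeats, with polymyxin B as positive drug.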

Healthy ICR mice = assay: Acute toxicity test in healthy mice, single tail vein injection; type: in vivo; conditions: within 7 days
Procedure: (§2) Healthy ICR mice aged 5-6 weeks were selected, with 5-10 mice in each group, and administered via a single tail vein injection at an administration volume of 20 mL/kg. In the preliminary test, the drug dose concentrations that caused 100% mortality and no mortality in mice after a single intravenous injection were determined. Based on this dose range, 4-5 dose groups were set up, with a dose ratio of 1:0.5 to 1:0.8 between adjacent groups. The mortality of animals within 7 days after administration was recorded. According to the mortality rate of experimental animals in each group, the median lethal dose (LD50) of the test samples, i.e., the dose causing 50% mortality of the tested animals, was calculated by the Bliss method.

[10] = as above; type: in vivo; conditions: mouse, in vivo, iv; ICR mice, single tail vein injection, Bliss method
Procedure: as §2

[11] = tested on: Pseudomonas aeruginosa ATCC27853; assay: In vivo antibacterial (protection) test in infected mice; conditions: infected ICR mice, 7 days observation
Excerpt: Pseudomonas aeruginosa ATCC27853 was selected for the determination of in vivo antibacterial activity.
One day before infection, the test bacteria were inoculated onto the corresponding nutrient agar plates and cultured overnight. On the day of infection, single colonies grown on the plates were picked and suspended in sterile normal saline, and the suspension was mixed thoroughly to obtain the original bacterial solution. The bacterial solution was then adjusted to the required concentration with 5% dried yeast powder and prepared freshly prior to use.
Healthy ICR mice were randomly divided into groups, with 5 mice per group, half male and half female. Bacterial solutions of different dilutions were aspirated and injected intraperitoneally into mice at a volume of 0.5 mL per 20 g of body weight. The mortality of mice was recorded within 7 days after infection. The minimum bacterial dose causing 100% mortality in mice was defined as the minimum lethal dose (MLD), which was used as the infection dose for the in vivo protection test.
Drug administration was performed via tail vein injection at 2 h, 8 h, 24 h, and 30 h after infection, with a total of 4 administrations, and the administration volume was 20 mL/kg. For the preparation of drug solutions, Compound 7, together with the control drugs polymyxin B and meropenem, were dissolved in normal saline to the required concentrations for tail vein injection, and all solutions were prepared freshly prior to use.
In the preliminary test, the drug dose concentrations that caused 100% mortality and no mortality in mice after infection with the tested bacteria were determined. Based on this dose range, 4-5 dose groups were established, with a dose ratio of 1:0.5 to 1:0.8 between adjacent groups.
Mice were randomly grouped according to body weight, with 8 mice per group (half male and half female). Each mouse was intraperitoneally infected with the test bacterial solution at a volume of 0.5 mL per 20 g of body weight, followed by tail vein injection at 2 h, 8 h, 24 h, and 30 h after infection. Mice in the blank control group were not infected with bacterial solution but were only given an equal volume of vehicle at an administration volume of 20 mL/kg. The mortality of mice was observed and recorded for 7 consecutive days.
The minimum lethal bacterial concentration of Pseudomonas aeruginosa ATCC27853 for intraperitoneal infection in mice was 4.2 × 10^2 CFU/mL, which was used as the infection dose in the formal test.
Mice in the infection control group were intraperitoneally inoculated with Pseudomonas aeruginosa ATCC27853 bacterial solution at the MLD concentration ([…]). Infection symptoms began to appear 3-4 hours after inoculation, and all 8 animals died within 48 hours (8/8), with a mortality rate of 100%.

Compound | MIC [1] [µg/mL] | MIC [2] [µg/mL] | MIC [3] [µg/mL] | MIC [4] [µg/mL] | MIC [5] [µg/mL] | MIC [6] [µg/mL] | MIC [7] [µg/mL] | MIC [8] [µg/mL] | IC50 at 72 h [9] [µg/mL] | mortality rate (Healthy ICR mice; single tail vein injection 15.36 mg/kg) [%] | mortality rate (Healthy ICR mice; single tail vein injection 19.2 mg/kg) [%] | mortality rate (Healthy ICR mice; single tail vein injection 24 mg/kg) [%] | mortality rate (Healthy ICR mice; single tail vein injection 30 mg/kg) [%] | LD50 at 168 h [10] [mg/kg] | mortality rate ([11]; 0.7 mg/kg tail vein twice daily for 2 days) [%] | mortality rate ([11]; 1.0 mg/kg tail vein twice daily for 2 days) [%] | mortality rate ([11]; 1.4 mg/kg tail vein twice daily for 2 days) [%] | mortality rate ([11]; 2 mg/kg tail vein twice daily for 2 days) [%]
CC(C)CCCCC(=O)N[C@@H](CCN)C(=O)N[C@H](C(=O)N[C@H](CN)C(=O)N[C@H]1CCNC(=O)[C@H]([C@@H](C)O)NC(=O)[C@H](CCN)NC(=O)[C@H](CCN)NC(=O)[C@H]([C@@H](C)O)NC(=O)[C@@H](Cc2ccccc2)NC(=O)[C@H](CCN)NC1=O)[C@@H](C)O [Compound 2, 6-methylheptanoyl-Dab-Thr-D-Dap-ring(4-10)[Dab-Dab-D-Phe-Thr-Dab-Dab-Thr]] ({Heptanoyl(6-Me)}-[Dab]T[dDap][Dab][Dab][dF]T[Dab][Dab]T; lactam 4-C) | ≤0.03 | ≤0.03 | ≤0.03 | ≤0.03 | 0.125 (≈ 0.107 µM) | ≤0.03 | ≤0.03 | ≤0.03 | > 500 | 0 | 25 | 62.5 | 100 | 22 |  |  |  | 
Polymyxin B [reference compound] | 0.03 | 0.06 | 0.125 | 0.25 | 0.25 | 0.03 | 0.125 | 0.25 |  |  |  |  |  |  | 100 | 100 | 87.5 | 62.5
